This is an account of results in patent US20240317741A1, “NAPHTHYRIDINE DERIVATIVE AS ATR INHIBITOR AND METHOD FOR PREPARING SAME” (WIGEN BIOMEDICINE TECHNOLOGY (SHANGHAI) CO., LTD., priority 2021, published 2024).

This test deals with MIA PaCa-2 cells. Kind of test: In-vitro anti-proliferative activity against MIA PaCa-2 cells. Format: cell-based. Conditions: Homo sapiens, 72 h after dosing, intracellular ATP content. As for the experimental part: MIA PaCa-2 cells were seeded on a 384-well plate at 3000 cells/well. After overnight adherence culture, DMSO or the compounds serially diluted 1:5 from 5 μM were added. […] The inhibition percentage of viable cells by the compounds was calculated by comparing with the DMSO group, and the IC50 value was calculated.

Bounds are passed on as bounds.

For `C[C@@H]1COCCN1c1cc(C2(C#N)CCC3(CC2)COC3)c2ccnc(-c3ccn[nH]3)c2n1` [Compound 51], the IC50 was < 1000 nM.
The value for `C[C@@H]1COCCN1c1cc(C2(C#N)CCC3(CC2)CN(C)C3)c2ccnc(-c3ccn[nH]3)c2n1` [Compound 52] was < 1000 nM; that for `CCOC1CCC(C#N)(c2cc(N3CCOC[C@H]3C)nc3c(-c4ccn[nH]4)nccc23)CC1` (some centres unmarked) [Compound 54] was < 1000 nM.
For `CC(C)OC1CCC(C#N)(c2cc(N3CCOC[C@H]3C)nc3c(-c4ccn[nH]4)nccc23)CC1` (some centres unmarked) [Compound 55], the IC50 is < 1000 nM.
As for `C[C@@H]1COCCN1c1cc(C2(C#N)CCC(OCC3CC3)CC2)c2ccnc(-c3ccn[nH]3)c2n1` (some centres unmarked) [Compound 56], the IC50 was < 1000 nM.
The value for `C[C@@H]1COCCN1c1cc(C2(C#N)CCC(OC3CC3)CC2)c2ccnc(-c3ccn[nH]3)c2n1` (some centres unmarked) [Compound 57] was < 1000 nM; that for `C[C@@H]1COCCN1c1cc(C2(C#N)CCC(OC3CCC3)CC2)c2ccnc(-c3ccn[nH]3)c2n1` (some centres unmarked) [Compound 58] was < 1000 nM; that for `C[C@@H]1COCCN1c1cc(C2(C#N)CCC(OC3CCCC3)CC2)c2ccnc(-c3ccn[nH]3)c2n1` (some centres unmarked) [Compound 59] was < 1000 nM.
For `C[C@@H]1COCCN1c1cc(C2(C#N)CCC(N)CC2)c2ccnc(-c3ccn[nH]3)c2n1` (some centres unmarked) [Compound 60], the IC50 is < 1000 nM.
`CNC1CCC(C#N)(c2cc(N3CCOC[C@H]3C)nc3c(-c4ccn[nH]4)nccc23)CC1` (some centres unmarked) [Compound 61]: the IC50 is < 1000 nM.
Turning to `CCN(CC)C1CCC(C#N)(c2cc(N3CCOC[C@H]3C)nc3c(-c4ccn[nH]4)nccc23)CC1` (some centres unmarked) [Compound 62], the IC50 was < 1000 nM.
With `C[C@@H]1COCCN1c1cc(C2(C#N)CCC(N3CCC3)CC2)c2ccnc(-c3ccn[nH]3)c2n1` (some centres unmarked) [Compound 63], the IC50 was < 1000 nM.
As to `C[C@@H]1COCCN1c1cc(C2(C#N)CCC(N3CCCCC3)CC2)c2ccnc(-c3ccn[nH]3)c2n1` (some centres unmarked) [Compound 64], the IC50 was < 1000 nM.
Consider `C[C@@H]1COCCN1c1cc(C2(C#N)CCC(N3CCOCC3)CC2)c2ccnc(-c3ccn[nH]3)c2n1` (some centres unmarked) [Compound 65], for which the IC50 is < 1000 nM.
The figure for `CCN1CCC(C#N)(c2cc(N3CCOC[C@H]3C)nc3c(-c4ccn[nH]4)nccc23)CC1` [Compound 66] is < 1000 nM; for `CC(C)N1CCC(C#N)(c2cc(N3CCOC[C@H]3C)nc3c(-c4ccn[nH]4)nccc23)CC1` [Compound 67] it is < 1000 nM.
For the molecule `C[C@@H]1COCCN1c1cc(C2(C#N)CCN(C3CCC3)CC2)c2ccnc(-c3ccn[nH]3)c2n1` [Compound 68], the IC50 was < 1000 nM.
Turning to `C[C@@H]1COCCN1c1cc(C2(C#N)CCN(C3COC3)CC2)c2ccnc(-c3ccn[nH]3)c2n1` [Compound 70], the IC50 was < 1000 nM.
For the molecule `C[C@@H]1COCCN1c1cc(C2(C#N)CCN(C3CN(C)C3)CC2)c2ccnc(-c3ccn[nH]3)c2n1` [Compound 72], the IC50 is < 1000 nM.
The figure for `C[C@@H]1COCCN1c1cc(C2(C#N)CCN(C3CCOC3)CC2)c2ccnc(-c3ccn[nH]3)c2n1` (some centres unmarked) [Compound 73] is < 1000 nM; for `C[C@@H]1COCCN1c1cc(C2(C#N)CCN(C3CCN(C)C3)CC2)c2ccnc(-c3ccn[nH]3)c2n1` (some centres unmarked) [Compound 74] it is < 1000 nM.
For the molecule `COCCN1CCC(C#N)(c2cc(N3CCOC[C@H]3C)nc3c(-c4ccn[nH]4)nccc23)CC1` [Compound 75], the IC50 is < 1000 nM.
With `C[C@@H]1COCCN1c1cc(C2(C#N)CCN(CC(N)=O)CC2)c2ccnc(-c3ccn[nH]3)c2n1` [Compound 76], the IC50 is < 1000 nM.
In the case of `C[C@@H]1COCCN1c1cc(C2(C#N)CCN(CC(=O)N(C)C)CC2)c2ccnc(-c3ccn[nH]3)c2n1` [Compound 77], the IC50 was < 1000 nM.
Take `C[C@@H]1COCCN1c1cc(C2(C#N)CCN(CCN(C)C)CC2)c2ccnc(-c3ccn[nH]3)c2n1` [Compound 78]: the IC50 was < 1000 nM.
In the case of `C[C@@H]1COCCN1c1cc(C2(C#N)CCN(CCS(C)(=O)=O)CC2)c2ccnc(-c3ccn[nH]3)c2n1` [Compound 80], the IC50 was < 1000 nM.

For orientation: IC50 means the midpoint of a concentration-inhibition curve.
